Assay results published in ChEMBL document CHEMBL5053502, “Too Hot to Handle: Antibacterial Peptides Identified in Ghost Pepper” (J Nat Prod, 2021).
Converted amounts (≈) assume the structure as drawn. The source made the active and inactive calls. The calls are words filed in the database; no cut-off is given here. Where a SMILES comes first, the peptide text is derived from it. Bridges are numbered along the chain shown (N, C = ends). [ ]: non-standard residue; d: D form. pGlu = O=C1CC[C@@H](C(=O)O)N1

What was measured:
Escherichia coli = experiment: Antibacterial activity against Escherichia coli ATCC 25922 assessed as bacterial growth inhibition incubated for 4 hrs followed by resazurin addition and measured after 1 hr by fluorescence based analysis; assay type: functional, organism-based
Acinetobacter baumannii [1] = experiment: Antibacterial activity against Acinetobacter baumannii 5075 assessed as bacterial growth inhibition incubated for 5 hrs by absorbance based analysis; assay type: functional, organism-based; settings: Acinetobacter baumannii, 5075, 5 h
Acinetobacter baumannii [2] = experiment: Bactericidal activity against Acinetobacter baumannii 5075 assessed as reduction in cell viability incubated for 24 hrs; assay type: functional
Cell membrane [3] = experiment: Induction of outer membrane permeabilization in Escherichia coli ATCC 25922 assessed as increase in NPN uptake at 10 to 40 uM by NPN-dye based fluorescence analysis; assay type: subcellular; settings: dose 10-40 µM
Cell membrane [4] = experiment: Induction of inner membrane permeabilization in Escherichia coli ATCC 25922 assessed as increase in absorbance at 420 nm in presence of ONPG by absorbance based assay; assay type: subcellular
[5] = Hemolytic activity in human RBC assessed as hemolysis at 2.5 to 40 uM incubated for 1 hr by absorbance based analysis; assay type: ADME, tissue-based; settings: erythrocyte, dose 2.5-40 µM
Pseudomonas aeruginosa = experiment: Antibacterial activity against Pseudomonas aeruginosa 1423 assessed as bacterial growth inhibition incubated for 7 hrs by absorbance based analysis; settings: Pseudomonas aeruginosa, 1423, 7 h
Klebsiella pneumoniae = experiment: Antibacterial activity against Klebsiella pneumoniae VK148 assessed as bacterial growth inhibition incubated for 4 hrs followed by resazurin addition and measured after 1 hr by fluorescence based analysis

Row | Compound | IC50 (Escherichia coli) | IC50 (Acinetobacter baumannii [1]) | MBC (Acinetobacter baumannii [2]) | Activity (Cell membrane [3]) | Activity (Cell membrane [4]) | Activity [5] | IC50 (Pseudomonas aeruginosa) | IC50 (Klebsiella pneumoniae)
1 | CC[C@H](C)[C@H](NC(=O)[C@H](CCCCN)NC(=O)CNC(=O)[C@H](CC(C)C)NC(=O)CNC(=O)[C@H](CCCCN)NC(=O)[C@@H](NC(=O)[C@H](CC(C)C)NC(=O)[C@H](Cc1cnc[nH]1)NC(=O)[C@H](CCCNC(=N)N)NC(=O)CNC(=O)[C@@H](NC(=O)[C@@H](N)CCCCN)C(C)C)C(C)C)C(=O)N[C@@H](Cc1ccccc1)C(=O)N[C@@H](CCCNC(=N)N)C(=O)N[C@@H](C)C(=O)NCC(=O)N[C@H](CCCCN)C(=O)N[C@@H](C(=O)N[C@H](C(=O)N[C@@H](Cc1ccccc1)C(=O)N[C@H]1CSSC[C@@H](C(=O)N[C@@H](CCCCN)C(=O)N[C@H](C(=O)N[C@H]2CSSC[C@@H](C(=O)N[C@@H](C)C(=O)O)NC(=O)[C@@H]3CSSC[C@H](NC(=O)[C@H](CC(C)C)NC(=O)CNC(=O)[C@H](CC(N)=O)NC2=O)C(=O)N[C@@H](CC(=O)O)C(=O)N[C@@H](Cc2ccc(O)cc2)C(=O)N3)[C@@H](C)O)NC(=O)[C@H]([C@@H](C)O)NC(=O)[C@H](CC(N)=O)NC1=O)[C@@H](C)CC)C(C)C | 7.6 µM | – | – | – | – | – | – | –
2 | CC[C@H](C)[C@@H]1NC(=O)[C@@H]2CSSC[C@H](NC(=O)[C@H](CCCCN)NC(=O)[C@H](C)NC(=O)[C@H](CCSC)NC(=O)[C@@H](NC(=O)[C@@H](NC(=O)[C@@H]3CCCN3C(=O)[C@H](CC(=O)O)NC(=O)[C@H](CC(C)C)NC(=O)[C@@H](NC(=O)[C@H](CCC(=O)O)NC(=O)[C@@H]3CCC(=O)N3)[C@@H](C)O)[C@@H](C)CC)CSSC[C@@H](C(=O)N[C@H](C(=O)N[C@@H](CC(C)C)C(=O)O)C(C)C)NC(=O)CNC(=O)[C@H](C)NC1=O)C(=O)N[C@@H](C(C)C)C(=O)N[C@@H](CC(C)C)C(=O)N[C@@H](CCCCN)C(=O)N[C@H]1CSSC[C@H](NC(=O)[C@H](Cc3c[nH]c4ccccc34)NC(=O)[C@H](C)NC(=O)[C@H](CCCCN)NC(=O)[C@H](CCCCN)NC(=O)CNC1=O)C(=O)N[C@@H](CC(C)C)C(=O)N[C@@H]([C@@H](C)O)C(=O)N[C@@H](CCCCN)C(=O)N2 ([pGlu]ETLDPICMAKCVLKCGKKAWCLTKCIAGCVL-OH; disulfide 8-30, 12-26, 16-22) | 14.5 µM | 4 µM | 8.6 µM (≈ 29.7 µg/mL) | 100% | Active | Non-Toxic | 6.9 µM | 13.2 µM
